Measurements taken from patent publication US11903992B2, “Composition comprising lidocaine, l-carnosine and dexpanthenol” (Cellix Bio Private Limited, priority 2021, dated 2024).

Legend:
[1] = Stability observations during development of the formulation; format: physicochemical; settings: during development of the oral rinse formulation
Text: In an embodiment, the composition is formulated as an oral rinse formulation. It could also be noted during development of the formulation that L-Carnosine tends to increase the pH of the composition to about 8.5, which tend to increase the degradation of lidocaine. […] During the experimentation, it could be noted that presence of a buffer (e.g. a citrate buffer) and an anti-oxidant (e.g. sodium metabisulfite) in the composition, while maintaining pH of the resultant composition/formulation around 6.5±1 (i.e. ranging from about 5.5 to about 7.5), preferably at 6.5±0.5 and more preferably, at 6.5±0.2 affords dramatic improvement in the shelf life of the composition/formulation.

[2] = pH of the formulation (pH meter); format: physicochemical; settings: during development of the formulation; tends to increase degradation of lidocaine

| Structure (SMILES) | stability observation of the ingredient [1] | pH of the composition as increased by L-Carnosine [2] |
| --- | --- | --- |
| NCCC(=O)N[C@@H](Cc1cnc[nH]1)C(=O)O [L-Carnosine] | sensitive to oxygen tend to degrade | about 8.5 |
| CC(C)(CO)[C@@H](O)C(=O)NCCCO [Dexpanthenol] | requires neutral pH for stability |  |
